One experiment has as its target SHP2 (Homo sapiens (Human), UniProt Q06124). Kind of experiment: SHP2-catalyzed hydrolysis of p-nitrophenyl phosphate (pNPP).
Conditions: not given
In kind it is biochemical. The method, then: Libraries 11a-d were screened at ˜5 μM for SHP2 inhibitors without further purification. The ability of the library components to inhibit the SHP2-catalyzed hydrolysis of p-nitrophenyl phosphate (pNPP) was evaluated at pH 7.0 and 25° C. More particularly, the phosphatase activity of SHP2 was assayed using p-nitrophenyl phosphate (pNPP) as a substrate at 25° C. in 50 mM 3,3-dimethylglutarate buffer, pH 7.0, containing 1 mM EDTA with an ionic strength of […] adjusted by NaCl. The libraries were screened in a 96-well format at 5 μM compound concentration. […] The nonenzymatic hydrolysis of pNPP was corrected by measuring the control without the addition of enzyme. The amount of product p-nitrophenol was determined from the absorbance at 405 nm detected by a Spectra MAX340 microplate spectrophotometer (Molecular Devices, Sunnyvale, Calif.) using a molar extinction coefficient of 18,000 M^−1 cm^−1. […] IC50 values for selected resynthesized and purified hits were calculated by fitting the absorbance at 405 nm versus inhibitor concentration to the following equation: AI/A0=IC50/(IC50+[I]) where AI is the absorbance at 405 nm of the sample in the presence of the inhibitor; A0 is the absorbance at 405 nm in the absence of inhibitor; and [I] is the concentration of the inhibitor.
Chain of SHP2 (Q06124 whole entry, looked up): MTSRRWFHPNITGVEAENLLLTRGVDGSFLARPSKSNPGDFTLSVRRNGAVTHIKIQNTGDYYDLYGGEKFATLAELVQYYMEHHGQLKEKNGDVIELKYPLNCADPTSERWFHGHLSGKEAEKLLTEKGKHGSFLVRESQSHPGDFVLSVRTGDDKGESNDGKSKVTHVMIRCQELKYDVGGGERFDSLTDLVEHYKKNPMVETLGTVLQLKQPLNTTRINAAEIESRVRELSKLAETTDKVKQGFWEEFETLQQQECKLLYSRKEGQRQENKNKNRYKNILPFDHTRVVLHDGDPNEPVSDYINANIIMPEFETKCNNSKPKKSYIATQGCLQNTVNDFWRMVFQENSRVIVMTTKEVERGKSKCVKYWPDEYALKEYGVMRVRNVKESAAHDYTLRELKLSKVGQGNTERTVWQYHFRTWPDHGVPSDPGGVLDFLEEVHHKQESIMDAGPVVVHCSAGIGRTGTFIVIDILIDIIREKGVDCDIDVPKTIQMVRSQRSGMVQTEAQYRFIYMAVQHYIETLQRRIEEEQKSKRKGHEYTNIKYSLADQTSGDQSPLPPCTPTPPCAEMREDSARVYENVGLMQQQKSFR
Turning to `Cn1c(-c2cccc(NC(=O)C(=O)Nc3ccc(-c4ccccc4)cc3)c2)c(I)c2cc(C(=O)O)c(O)cc21` [11a-2, 2-(3-(2-([1,1′-biphenyl]-4-ylamino)-2-oxoacetamido)phenyl)-6-hydroxy-3-iodo-1-methyl-1H-indole-5-carboxylic acid], the “SHP2 inhibition, in words” value is “strongly inhibited”.
Consider `Cn1c(-c2cccc(NC(=O)C(=O)Nc3cccc(OCc4ccccc4)c3)c2)c(I)c2cc(C(=O)O)c(O)cc21` [11a-6, 2-(3-(2-((3-(benzyloxy)phenyl)amino)-2-oxoacetamido)phenyl)-6-hydroxy-3-iodo-1-methyl-1H-indole-5-carboxylic acid], for which the “SHP2 inhibition, in words” value was “submicromolar”.
With `Cn1c(-c2cccc(NC(=O)C(=O)Nc3cccc(-c4ccccc4)c3)c2)c(I)c2cc(C(=O)O)c(O)cc21` [11a-5, 2-(3-(2-([1,1′-biphenyl]-3-ylamino)-2-oxoacetamido)phenyl)-6-hydroxy-3-iodo-1-methyl-1H-indole-5-carboxylic acid], the “SHP2 inhibition, in words” value is listed as “strongly inhibited”.
The same measure, in the same setting: as for `Cn1c(-c2cccc(NC(=O)C(=O)Nc3ccc(OCc4ccccc4)c(Cl)c3)c2)c(I)c2cc(C(=O)O)c(O)cc21` [11a-3, 2-(3-(2-((4-(benzyloxy)-3-chlorophenyl)amino)-2-oxoacetamido)phenyl)-6-hydroxy-3-iodo-1-methyl-1H-indole-5-carboxylic acid], the entry is “submicromolar”.
For `Cn1c(-c2cccc(NC(=O)CCC(=O)Nc3ccc(-c4ccsc4)cc3)c2)c(I)c2cc(C(=O)O)c(O)cc21` [11c-1, 6-hydroxy-3-iodo-1-methyl-2-(3-(4-oxo-4-((4-(thiophen-3-yl)phenyl)amino)butanamido)phenyl)-1H-indole-5-carboxylic acid], the “IC50 for SHP2, times higher than that of 11a-1” value is “more than 10 times”.

The experiment is the same for the next values; noted with them: pNPP substrate, pH 7.0, 25° C.
Consider `Cn1c(-c2cccc(NC(=O)CCC(=O)Nc3cccc(-c4ccccc4)c3)c2)c(I)c2cc(C(=O)O)c(O)cc21` [11c-5, 2-(3-(4-([1,1′-biphenyl]-3-ylamino)-4-oxobutanamido)phenyl)-6-hydroxy-3-iodo-1-methyl-1H-indole-5-carboxylic acid], for which the half-inhibitory concentration (IC50) (usually the concentration that gives 50% inhibition) amounted to 5300 ± 900 nM.
`Cn1c(-c2cccc(NC(=O)C(=O)Nc3ccc(I)cc3)c2)c(I)c2cc(C(=O)O)c(O)cc21` [11a-8, 6-hydroxy-3-iodo-2-(3-(2-((4-iodophenyl)amino)-2-oxoacetamido)phenyl)-1-methyl-1H-indole-5-carboxylic acid] came in with an IC50 of 1200 ± 210 nM.
`Cn1c(-c2cccc(NC(=O)C(=O)Nc3ccccc3-c3nc4ccccc4[nH]3)c2)c(I)c2cc(C(=O)O)c(O)cc21` [11a-9, 2-(3-(2-((2-(1H-benzo[d]imidazol-2-yl)phenyl)amino)-2-oxoacetamido)phenyl)-6-hydroxy-3-iodo-1-methyl-1H-indole-5-carboxylic acid] registered an IC50 of 1250 ± 60 nM.
Take `Cn1c(-c2cccc(NC(=O)C(=O)Nc3ccc(-c4ccc(C#N)cc4)cc3)c2)c(I)c2cc(C(=O)O)c(O)cc21` [11a-21, 2-(3-(2-((4′-cyano-[1,1′-biphenyl]-4-yl)amino)-2-oxoacetamido)phenyl)-6-hydroxy-3-iodo-1-methyl-1H-indole-5-carboxylic acid]: the IC50 came out at 220 ± 10 nM.
`Cn1c(-c2cccc(NC(=O)C(=O)Nc3ccc(Cl)c(C(F)(F)F)c3)c2)c(I)c2cc(C(=O)O)c(O)cc21` [11a-13, 2-(3-(2-((4-chloro-3-(trifluoromethyl)phenyl)amino)-2-oxoacetamido)phenyl)-6-hydroxy-3-iodo-1-methyl-1H-indole-5-carboxylic acid] returned an IC50 of 1760 ± 80 nM.
In turn, `Cn1c(-c2cccc(NC(=O)C(=O)Nc3cccc(-c4ccsc4)c3)c2)c(I)c2cc(C(=O)O)c(O)cc21` [11a-26, 6-hydroxy-3-iodo-1-methyl-2-(3-(2-oxo-2-((3-(thiophen-3-yl)phenyl)amino)acetamido)phenyl)-1H-indole-5-carboxylic acid] showed an IC50 of 630 ± 40 nM. This IC50 is about 2.8-fold lower than that of the molecule before.
For `Cn1c(-c2cccc(NC(=O)C(=O)Nc3ccc(-c4ccccc4)cc3)c2)c(I)c2cc(C(=O)O)c(O)cc21` [11a-2, 2-(3-(2-([1,1′-biphenyl]-4-ylamino)-2-oxoacetamido)phenyl)-6-hydroxy-3-iodo-1-methyl-1H-indole-5-carboxylic acid], the IC50 is 620 ± 50 nM.
The molecule `Cn1c(-c2cccc(NC(=O)C(=O)Nc3cccc(-c4ccco4)c3)c2)c(I)c2cc(C(=O)O)c(O)cc21` [11a-24, 2-(3-(2-((3-(furan-2-yl)phenyl)amino)-2-oxoacetamido)phenyl)-6-hydroxy-3-iodo-1-methyl-1H-indole-5-carboxylic acid] registered an IC50 of 380 ± 10 nM.
`Cn1c(-c2cccc(NC(=O)C(=O)Nc3nccs3)c2)c(I)c2cc(C(=O)O)c(O)cc21` [11a-16, 6-hydroxy-3-iodo-1-methyl-2-(3-(2-oxo-2-(thiazol-2-ylamino)acetamido)phenyl)-1H-indole-5-carboxylic acid]: the IC50 was 2310 ± 280 nM. Against the preceding molecule, the IC50 is about 6.1-fold higher.
`Cn1c(-c2cccc(NC(=O)C(=O)Nc3cccc(Cl)c3)c2)c(I)c2cc(C(=O)O)c(O)cc21` [11a-11, 2-(3-(2-((3-chlorophenyl)amino)-2-oxoacetamido)phenyl)-6-hydroxy-3-iodo-1-methyl-1H-indole-5-carboxylic acid]: it took 1460 ± 450 nM to reach half-maximal inhibition (IC50).
`CC(C)c1ccc(NC(=O)CCC(=O)Nc2cccc(-c3c(I)c4cc(C(=O)O)c(O)cc4n3C)c2)cc1` [11c-8, 6-hydroxy-3-iodo-2-(3-(4-((4-isopropylphenyl)amino)-4-oxobutanamido)phenyl)-1-methyl-1H-indole-5-carboxylic acid]: the half-inhibitory concentration (IC50) turned out to be 10700 ± 2400 nM.
In turn, `Cn1c(-c2cccc(NC(=O)CCC(=O)NCc3ccc4c(c3)OCO4)c2)c(I)c2cc(C(=O)O)c(O)cc21` [11c-9, 2-(3-(4-((benzo[d][1,3]dioxol-5-ylmethyl)amino)-4-oxobutanamido)phenyl)-6-hydroxy-3-iodo-1-methyl-1H-indole-5-carboxylic acid] registered an IC50 of 14000 ± 1000 nM.
Consider `Cn1c(-c2cccc(NC(=O)C(=O)Nc3cccc(Br)c3)c2)c(I)c2cc(C(=O)O)c(O)cc21` [11a-18, 2-(3-(2-((3-bromophenyl)amino)-2-oxoacetamido)phenyl)-6-hydroxy-3-iodo-1-methyl-1H-indole-5-carboxylic acid], for which the IC50 was found to be 2730 ± 550 nM.
`Cn1c(-c2cccc(NC(=O)CCC(=O)O)c2)c(I)c2cc(C(=O)O)c(O)cc21` [10c, 2-(3-(3-carboxypropanamido)phenyl)-6-hydroxy-3-iodo-1-methyl-1H-indole-5-carboxylic acid] showed an IC50 of 56000 nM.
In turn, `Cn1c(-c2cccc(NC(=O)C(=O)Nc3cccc(OCc4ccccc4)c3)c2)c(I)c2cc(C(=O)O)c(O)cc21` [11a-6, 2-(3-(2-((3-(benzyloxy)phenyl)amino)-2-oxoacetamido)phenyl)-6-hydroxy-3-iodo-1-methyl-1H-indole-5-carboxylic acid] returned an IC50 of 860 ± 140 nM.
Molecule `Cn1c(-c2cccc(NC(=O)CCC(=O)Nc3cccc(OCc4ccccc4)c3)c2)c(I)c2cc(C(=O)O)c(O)cc21` [11c-4, 2-(3-(4-((3-(benzyloxy)phenyl)amino)-4-oxobutanamido)phenyl)-6-hydroxy-3-iodo-1-methyl-1H-indole-5-carboxylic acid] yielded an IC50 of 4500 ± 1400 nM.
Regarding `Cn1c(-c2cccc(NC(=O)C(=O)Nc3ccc(-n4ccnc4)cc3)c2)c(I)c2cc(C(=O)O)c(O)cc21` [11a-12, 2-(3-(2-((4-(1H-imidazol-1-yl)phenyl)amino)-2-oxoacetamido)phenyl)-6-hydroxy-3-iodo-1-methyl-1H-indole-5-carboxylic acid], inhibition was half-maximal at 1490 ± 150 nM (IC50).
The same measure, in the same setting: as for `Cn1c(-c2cccc(NC(=O)C(=O)Nc3cccc(-c4ccccc4)c3)c2)c(I)c2cc(C(=O)O)c(O)cc21` [11a-5, 2-(3-(2-([1,1′-biphenyl]-3-ylamino)-2-oxoacetamido)phenyl)-6-hydroxy-3-iodo-1-methyl-1H-indole-5-carboxylic acid], the figure is 770 ± 150 nM; as for `Cn1c(-c2cccc(NC(=O)C(=O)Nc3ccc(OCc4ccccc4)c(Cl)c3)c2)c(I)c2cc(C(=O)O)c(O)cc21` [11a-3, 2-(3-(2-((4-(benzyloxy)-3-chlorophenyl)amino)-2-oxoacetamido)phenyl)-6-hydroxy-3-iodo-1-methyl-1H-indole-5-carboxylic acid], 660 ± 30 nM; as for `Cn1c(-c2cccc(NC(=O)CCC(=O)N3CCc4cc(Br)ccc43)c2)c(I)c2cc(C(=O)O)c(O)cc21` [11c-6, 2-(3-(4-(5-bromoindolin-1-yl)-4-oxobutanamido)phenyl)-6-hydroxy-3-iodo-1-methyl-1H-indole-5-carboxylic acid], 7200 ± 900 nM.
`Cn1c(-c2cccc(NC(=O)CCC(=O)Nc3ccc(-c4ccsc4)cc3)c2)c(I)c2cc(C(=O)O)c(O)cc21` [11c-1, 6-hydroxy-3-iodo-1-methyl-2-(3-(4-oxo-4-((4-(thiophen-3-yl)phenyl)amino)butanamido)phenyl)-1H-indole-5-carboxylic acid] came in with an IC50 of 2300 nM.
Consider `Cn1c(-c2cccc(NC(=O)C(=O)Nc3nc4ccc(Br)cc4s3)c2)c(I)c2cc(C(=O)O)c(O)cc21` [11a-4, 2-(3-(2-((6-bromobenzo[d]thiazol-2-yl)amino)-2-oxoacetamido)phenyl)-6-hydroxy-3-iodo-1-methyl-1H-indole-5-carboxylic acid], for which half-maximal inhibition (IC50) required 760 ± 110 nM.
Same read-out and setting: in the case of `Cn1c(-c2cccc(NC(=O)C(=O)N3CCc4cc(Br)ccc43)c2)c(I)c2cc(C(=O)O)c(O)cc21` [11a-7, 2-(3-(2-(5-bromoindolin-1-yl)-2-oxoacetamido)phenyl)-6-hydroxy-3-iodo-1-methyl-1H-indole-5-carboxylic acid] it was 1050 ± 90 nM; in that of `Cn1c(-c2cccc(NC(=O)C(=O)Nc3ccc(-c4cccc(C#N)c4)cc3)c2)c(I)c2cc(C(=O)O)c(O)cc21` [11a-22, 2-(3-(2-((3′-cyano-[1,1′-biphenyl]-4-yl)amino)-2-oxoacetamido)phenyl)-6-hydroxy-3-iodo-1-methyl-1H-indole-5-carboxylic acid], 310 ± 20 nM.
`Cn1c(-c2cccc(NC(=O)C(=O)Nc3cccc(F)c3)c2)c(I)c2cc(C(=O)O)c(O)cc21` [11a-19, 2-(3-(2-((3-fluorophenyl)amino)-2-oxoacetamido)phenyl)-6-hydroxy-3-iodo-1-methyl-1H-indole-5-carboxylic acid] yielded an IC50 of 4660 ± 500 nM.
As to `Cn1c(-c2cccc(NC(=O)CCC(=O)Nc3ccc(Oc4ccccc4)cc3)c2)c(I)c2cc(C(=O)O)c(O)cc21` [11c-2, 6-hydroxy-3-iodo-1-methyl-2-(3-(4-oxo-4-((4-phenoxyphenyl)amino)butanamido)phenyl)-1H-indole-5-carboxylic acid], the IC50 stood at 3600 ± 300 nM.
Still for that read-out and setting: in the case of `Cn1c(-c2cccc(NC(=O)C(=O)Nc3nnc(-c4ccccc4)s3)c2)c(I)c2cc(C(=O)O)c(O)cc21` [11a-14, 6-hydroxy-3-iodo-1-methyl-2-(3-(2-oxo-2-((5-phenyl-1,3,4-thiadiazol-2-yl)amino)acetamido)phenyl)-1H-indole-5-carboxylic acid] it was 1790 ± 150 nM.

The values above are taken from US9522881B2, “Hydroxyindole carboxylic acid based inhibitors for oncogenic Src homology-2 domain containing protein tyrosine phosphatase-2 (SHP2)” (Indiana University Research and Technology Corporation, priority 2013, dated 2016).
